From patent EP0394982A2, “Anthracycline derivatives with cytostatic activity” (BEHRINGWERKE Aktiengesellschaft, priority 1989, dated 1990)
Values after ≈ are worked out from the molar mass of the structure shown. Read-outs that look alike come from different tables or passages of the source.

System: L1210 Leukämiezellen
Assay: Colony formation of L1210 leukemia cells in soft agar (cytotoxicity in vitro)
Assay type: cell-based, Maus
Settings: Mus musculus, colonies > 60 µm counted
Source text: Die zytostatische Wirksamkeit der erfindungsgemäßen Verbindungen wurde anhand von L1210 Leukämiezellen der Maus getestet. Hierzu wurde die Koloniebildung von L1210 Leukämiezellen in Agarplatten herangezogen. Diese Methode dient zum Nachweis des Einflusses der Testsubstanzen auf das Wachstumsverhalten der Zellen über 1 Stunde oder über mehrere Generationen. Bei einer Zellzykluszeit von 10-12 Stunden werden dabei in der Testzeit von 7 Tagen etwa 14 aufeinanderfolgende Generationen beobachtet. Die erfindungsgemäßen zytostatisch wirksamen Substanzen bewirken in diesem Test eine Reduktion der zu beobachtenden Koloniezahl gegenüber einer unbehandelten Kontrollprobe.
Verfahrensweise zur Ermittlung der Koloniebildung von L1210 Leukämiezellen in Soft-Agar
500 Leukämiezellen pro Platte wurden mit unterschiedlichen Konzentrationen der Testsubstanz 1 Stunde bei 37°C inkubiert. Anschließend wurden die Zellen zweimal mit McCoy5A-Medium gewaschen und schließlich in Petrischalen nach Zugabe von 0,3 % Agar ausgegossen. Kontrollen wurden lediglich mit frischem Medium inkubiert. Anstelle der einstündigen Inkubation wurden in manchen Fällen unterschiedliche Konzentrationen und Testsubstanzen der oberen Agarschicht zugemischt, um so eine kontinuierliche Exposition der Zellen über die gesamte Inkubationszeit zu erreichen. Nach Erstarren des Agars wurden die Platten im Brutschrank 7 Tage bei 37°C inkubiert (5 Vol.-% CO₂, 95 % relative Luftfeuchtigkeit). Anschließend wurde die Zahl der entstandenen Kolonien mit einem Durchmesser von mehr als 60 µm gezählt. Die Ergebnisse wurden angegeben als Koloniezahl in behandelten Agarplatten in Prozent der unbehandelten Kontrolle. Aus der so erhaltenen Dosiswirkungskurve wurde die IC₅₀ als Maß für die Wirksamkeit der Substanz ermittelt. Die Ergebnisse für die hier beschriebenen Verbindungen im Vergleich zu Adriamycin sind in Tabelle 1 zusammengefaßt.

[1] = L1210, 168 h, continuous exposure (substance mixed into upper agar layer), 7 days at 37°C, read-out: Dauerinkubation IC50
[2] = L1210, 1 h incubation at 37°C, cells washed, then 7 days in agar, read-out: 1h-Inkubation IC50

SMILES	IC50 [1]	IC50 [2]
CC[C@@]1(O)C[C@H](O[C@H]2C[C@H](N(C)CC(=O)NCCN)[C@H](O)[C@H](C)O2)c2c(O)c3c(c(O)c2[C@H]1O)C(=O)c1cccc(O)c1C3=O [Beispiel 2, 7-0-(3′-N-Ethylendiaminocarbonylmethyl-3′-N-methyl-α-L-daunosaminyl)-β-rhodomycinon]	0.35 µg/mL (≈ 0.556 µM)	1 µg/mL (≈ 1.59 µM)
CC[C@@]1(O)C[C@H](O[C@H]2C[C@H](N(C)CC(=O)NCCc3ccc(O)cc3)[C@H](O)[C@H](C)O2)c2c(O)c3c(c(O)c2[C@H]1O)C(=O)c1cccc(O)c1C3=O [Beispiel 6, 7-O-(3′-N-Methyl-3′-N-tyraminocarbonylmethyl-α-L-daunosaminyl)-β-rhodomycinon]	0.41 µg/mL (≈ 0.58 µM)	1.3 µg/mL (≈ 1.84 µM)
CC[C@@]1(O)C[C@H](O[C@H]2C[C@H](N(C)CC(=O)NN)[C@H](O)[C@H](C)O2)c2c(O)c3c(c(O)c2[C@H]1O)C(=O)c1cccc(O)c1C3=O [Beispiel 1, 7-0-(3′-N-Hydrazinocarbonylmethyl-3′-N-methyl-α-L-daunosaminyl)-β-rhodomycinon]	0.32 µg/mL (≈ 0.532 µM)	0.21 µg/mL (≈ 0.349 µM)
CC[C@@]1(O)C[C@H](O[C@H]2C[C@H](N(C)CC(=O)NCCc3c[nH]cn3)[C@H](O)[C@H](C)O2)c2c(O)c3c(c(O)c2[C@H]1O)C(=O)c1cccc(O)c1C3=O [Beispiel 5, 7-O-(3′-N-Histaminocarbonylmethyl-3′-N-methyl-α-L-daunosaminyl)-β-rhodomycinon]	0.31 µg/mL (≈ 0.455 µM)	1 µg/mL (≈ 1.47 µM)
CC[C@@]1(O)C[C@H](O[C@H]2C[C@H](N(C)CC(=O)NCCCCN)[C@H](O)[C@H](C)O2)c2c(O)c3c(c(O)c2[C@H]1O)C(=O)c1cccc(O)c1C3=O [Beispiel 4]	0.35 µg/mL (≈ 0.532 µM)	1.3 µg/mL (≈ 1.98 µM)
CC[C@@]1(O)C[C@H](O[C@H]2C[C@H](N(C)CC(=O)NCCN(C)C)[C@H](O)[C@H](C)O2)c2c(O)c3c(c(O)c2[C@H]1O)C(=O)c1cccc(O)c1C3=O [Beispiel 3]	0.12 µg/mL (≈ 0.182 µM)	0.26 µg/mL (≈ 0.395 µM)
CC[C@@]1(O)C[C@H](O[C@H]2C[C@H](N(C)CC(=O)NCCc3c[nH]c4ccccc34)[C@H](O)[C@H](C)O2)c2c(O)c3c(c(O)c2[C@H]1O)C(=O)c1cccc(O)c1C3=O [Beispiel 7, 7-O-(3′-N-Methyl-3′-N-tryptaminocarbonylmethyl-α-L-daunosaminyl)-β-rhodomycinon]	0.36 µg/mL (≈ 0.493 µM)	1.2 µg/mL (≈ 1.64 µM)
